Test results: the supplement of paper PMC10307832

Tests used:
Assay in all cases: relative viability (nuclei count vs DMSO), 5 days (fraction); higher = more cells survive
[1] = test system: HCC-78
Procedure, shortened: (§1)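 Lung cancer cell lines were pin-tool dosed in 1536-well plates on the day after seeding, with either a lone drug or a fixed anchor-drug dose plus five library-drug doses (not always all listed) in √10 steps. Nuclei were counted on 4× images after 5 days. Relative viability is the ratio of treated-well to vehicle-well nuclei counts, with each value a median of duplicate plates.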

[2] = test system: HCC-827
Procedure, shortened: as §1

[3] = test system: NCI-H1650
Procedure, shortened: as §1

[4] = test system: NCI-H2087
Procedure, shortened: as §1

[5] = test system: EKVX
Procedure, shortened: as §1

[6] = test system: NCI-H1792
Procedure, shortened: as §1

[7] = test system: NCI-H727
Procedure, shortened: as §1

[8] = test system: COR-L 105
Procedure, shortened: as §1

[9] = test system: NCI-H1734
Procedure, shortened: as §1

[10] = test system: EMC-BAC-2
Procedure, shortened: as §1

[11] = test system: EPLC-272H
Procedure, shortened: as §1

[12] = test system: NCI-H2126
Procedure, shortened: as §1

[13] = test system: LOU-NH91
Procedure, shortened: as §1

[14] = test system: ChaGo-K-1
Procedure, shortened: as §1

[15] = test system: RERF-LC-KJ
Procedure, shortened: as §1

[16] = test system: SW 1573
Procedure, shortened: as §1

[17] = test system: LU99A
Procedure, shortened: as §1

[18] = test system: BEN
Procedure, shortened: as §1

[19] = test system: LCLC-97TM1
Procedure, shortened: as §1

O=c1[nH]c2ccccc2n1C1CCN(CCCC(c2ccc(F)cc2)c2ccc(F)cc2)CC1 [Pimozide] + CC(C)C[C@H](NC(=O)[C@H](Cc1ccccc1)NC(=O)c1cnccn1)B(O)O [Bortezomib] (partner 0.002 µM)
relative viability ([1]; first compound 0.08 µM): 0.408
relative viability ([1]; first compound 0.253 µM): 0.417
relative viability ([1]; first compound 0.8 µM): 0.409
relative viability ([1]; first compound 2.53 µM): 0.443
relative viability ([1]; first compound 8 µM): 0.336
relative viability ([2]; first compound 0.253 µM): 0.943
relative viability ([2]; first compound 0.8 µM): 0.918
relative viability ([2]; first compound 2.53 µM): 0.982
relative viability ([2]; first compound 8 µM): 1.04
relative viability ([3]; first compound 0.08 µM): 0.23
relative viability ([3]; first compound 0.253 µM): 0.204
relative viability ([3]; first compound 0.8 µM): 0.188
relative viability ([3]; first compound 2.53 µM): 0.177
relative viability ([3]; first compound 8 µM): 0.178
relative viability ([4]; first compound 0.08 µM): 0.86
relative viability ([4]; first compound 0.253 µM): 0.815
relative viability ([4]; first compound 0.8 µM): 0.764
relative viability ([4]; first compound 2.53 µM): 0.765
relative viability ([4]; first compound 8 µM): 0.585
relative viability ([5]; first compound 0.253 µM): 1.11
relative viability ([5]; first compound 0.8 µM): 0.992
relative viability ([5]; first compound 2.53 µM): 0.994
relative viability ([5]; first compound 8 µM): 0.937
relative viability ([6]; first compound 0.08 µM): 0.951
relative viability ([6]; first compound 0.253 µM): 0.939
relative viability ([6]; first compound 0.8 µM): 0.894
relative viability ([6]; first compound 2.53 µM): 0.875
relative viability ([6]; first compound 8 µM): 0.976
relative viability ([7]; first compound 0.08 µM): 0.729
relative viability ([7]; first compound 0.253 µM): 0.788
relative viability ([7]; first compound 0.8 µM): 0.884
relative viability ([7]; first compound 2.53 µM): 0.733
relative viability ([7]; first compound 8 µM): 0.868
relative viability ([8]; first compound 0.253 µM): 0.749
relative viability ([8]; first compound 0.8 µM): 0.659
relative viability ([8]; first compound 2.53 µM): 0.672
relative viability ([8]; first compound 8 µM): 0.479
relative viability ([9]; first compound 0.08 µM): 0.903
relative viability ([9]; first compound 0.253 µM): 0.958
relative viability ([9]; first compound 0.8 µM): 0.916
relative viability ([9]; first compound 2.53 µM): 0.993
relative viability ([9]; first compound 8 µM): 0.844
relative viability ([10]; first compound 0.08 µM): 0.992
relative viability ([10]; first compound 0.253 µM): 1.03
relative viability ([10]; first compound 0.8 µM): 0.972
relative viability ([10]; first compound 2.53 µM): 1.04
relative viability ([10]; first compound 8 µM): 1.05
relative viability ([11]; first compound 0.08 µM): 0.974
relative viability ([11]; first compound 0.253 µM): 1.04
relative viability ([11]; first compound 0.8 µM): 0.826
relative viability ([11]; first compound 2.53 µM): 0.828
relative viability ([11]; first compound 8 µM): 0.91
relative viability ([12]; first compound 0.08 µM): 1.14
relative viability ([12]; first compound 0.253 µM): 1.1
relative viability ([12]; first compound 0.8 µM): 1.1
relative viability ([12]; first compound 2.53 µM): 1.11
relative viability ([12]; first compound 8 µM): 1.05
relative viability ([13]; first compound 0.08 µM): 0.498
relative viability ([13]; first compound 0.253 µM): 0.528
relative viability ([13]; first compound 0.8 µM): 0.529
relative viability ([13]; first compound 2.53 µM): 0.504
relative viability ([13]; first compound 8 µM): 0.479
relative viability ([14]; first compound 0.08 µM): 1.01
relative viability ([14]; first compound 0.253 µM): 0.883
relative viability ([14]; first compound 0.8 µM): 0.977
relative viability ([14]; first compound 2.53 µM): 1.01
relative viability ([14]; first compound 8 µM): 0.872
relative viability ([15]; first compound 0.08 µM): 1.1
relative viability ([15]; first compound 0.253 µM): 0.92
relative viability ([15]; first compound 0.8 µM): 0.949
relative viability ([15]; first compound 2.53 µM): 1.02
relative viability ([15]; first compound 8 µM): 0.92
relative viability ([16]; first compound 0.08 µM): 1.09
relative viability ([16]; first compound 0.253 µM): 1.02
relative viability ([16]; first compound 0.8 µM): 0.898
relative viability ([16]; first compound 2.53 µM): 0.894
relative viability ([16]; first compound 8 µM): 0.963
relative viability ([17]; first compound 0.08 µM): 1.17
relative viability ([17]; first compound 0.253 µM): 0.978
relative viability ([17]; first compound 0.8 µM): 1.09
relative viability ([17]; first compound 2.53 µM): 1.09
relative viability ([17]; first compound 8 µM): 0.929
relative viability ([18]; first compound 0.08 µM): 0.678
relative viability ([18]; first compound 0.253 µM): 0.81
relative viability ([18]; first compound 0.8 µM): 0.788
relative viability ([18]; first compound 2.53 µM): 0.867
relative viability ([18]; first compound 8 µM): 0.976
relative viability ([19]; first compound 0.08 µM): 0.526
relative viability ([19]; first compound 0.253 µM): 0.637
relative viability ([19]; first compound 0.8 µM): 0.574
relative viability ([19]; first compound 2.53 µM): 0.353
relative viability ([19]; first compound 8 µM): 0.616
